# Measured values taken from publication PMC7754465, “Multiparameter Kinetic Analysis for Covalent Fragment Optimization by Using Quantitative Irreversible Tethering (qIT)” (Chembiochem, 2020).
# Experiment: qIT: rate of reaction with glutathione (intrinsic reactivity)
# Format: physicochemical
# Conditions: fragment 0.5 mM, glutathione 5 μM
# Experimental: Previously we described a fluorescence‐based platform for screening cysteine‐targeting covalent fragments called quantitative irreversible tethering (qIT). ^[19] The method measures and compares the rate of reactions of individual fragments with the protein‐of‐interest (POI) and GSH (Figure 2a and b).
# Figure 2 Comparison of previous and current applications of Quantitative irreversible tethering (qIT). a) Overview of rate determination. A cysteine‐containing biomolecule is treated with covalent fragments under pseudo‐first‐order conditions. Reaction progress is followed by discrete measurement of free cysteine concentration by using the fluorogenic probe CPM, and rate constants (k obs) are derived from exponential regression analysis. b) Comparison of the reactivity profile of each fragment with the POI and GSH typically classes them as unreactive, reactive but non‐selective or reactive and selective. c) Quantification of kinetic POI/GSH selectivity facilitates hit identification. d) The observed rate of reaction between the POI and hit fragment is determined at a range of ligand concentrations by using qIT. Subsequent hyperbolic regression analysis is used to derive K i and k inact to facilitate comprehensive covSAR analysis. […]
smiles,measurement,value
C=CC(=O)N1CCCc2cc(C(=O)OC)ccc21 [compound 1],GSH: kobs/[I],0.02 M⁻¹ s⁻¹
